Biological target: T1, P2X7 receptor (Homo sapiens, UniProt Q99572)
T1 construct: host or cells: SH-SY5Y
T1 sequence (Q99572 1-595): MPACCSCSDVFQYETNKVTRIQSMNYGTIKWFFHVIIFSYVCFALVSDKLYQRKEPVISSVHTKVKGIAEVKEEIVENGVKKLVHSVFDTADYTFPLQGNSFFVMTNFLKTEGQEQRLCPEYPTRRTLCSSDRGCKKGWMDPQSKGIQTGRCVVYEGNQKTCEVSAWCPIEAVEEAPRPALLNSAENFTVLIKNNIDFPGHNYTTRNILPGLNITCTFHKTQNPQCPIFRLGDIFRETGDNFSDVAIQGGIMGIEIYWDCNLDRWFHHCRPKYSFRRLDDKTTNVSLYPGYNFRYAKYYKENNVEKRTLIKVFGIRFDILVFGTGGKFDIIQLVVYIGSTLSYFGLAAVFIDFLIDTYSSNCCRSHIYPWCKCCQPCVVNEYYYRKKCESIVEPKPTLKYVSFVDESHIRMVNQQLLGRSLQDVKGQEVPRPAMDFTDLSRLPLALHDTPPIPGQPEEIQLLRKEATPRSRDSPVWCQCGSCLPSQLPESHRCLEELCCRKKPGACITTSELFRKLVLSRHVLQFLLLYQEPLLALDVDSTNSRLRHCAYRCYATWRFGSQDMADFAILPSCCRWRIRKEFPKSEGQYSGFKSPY
Experiment: P2X7 calcium mobilization assay, high throughput, antagonist activity (Example 4A)
Assay type: cell-based
Conditions: not given
How it was run: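 Cells plated at 100,000/well the day before were dye-loaded for 1 h, then incubated 1 h at room temperature with test compound before agonist-triggered calcium mobilization was read on FLIPR Tetra. Maximum RFU was corrected by subtracting the no-agonist control and related to the agonist-control response.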

Compound | IC50
O=C(Cc1cn2c(C(=O)NCC34CC5CC(CC(C5)C3)C4)cccc2n1)NCC1CCCO1 (stereo not shown) [Compound 157, N-(adamantan-1-ylmethyl)-2-{2-oxo-2-[(tetrahydrofuran-2-ylmethyl)amino]ethyl}imi-dazo[1,2-a]pyridine-5-carboxamide] | < 2 µM
CC(C)N(CCO)Cc1cn2c(C(=O)NCC34CC5CC(CC(C5)C3)C4)cccc2n1 [Compound 132, N-(adamantan-1-ylmethyl)-2-{[(2-hydroxyethyl)(iso-propyl)amino]methyl}imi-dazo[1,2-a]pyridine-5-carboxamide] | < 2 µM

Same assay, conditions: 50% decrease in the fluorescence response of cells exposed to 80 μM 2′(3′)-O-(4-benzoyl-benzoyl)adenosine 5′-triphosphate; Example 4A; read-out: IC50

IC50 | Compound
< 2 µM | CC1(C)[C@@H]2CC[C@@H](CNC(=O)c3cccc4nc(CC(=O)N5CCNCC5)cn34)[C@H]1C2 [Compound 555, N-{[(1R,2R,5R)-6,6-dimethylbicyclo[3.1.1]hept-2-yl]methyl}-2-(2-oxo-2-piperazin-1-ylethyl)imidazo[1,2-a]pyridine-5-carboxamide]
< 2 µM | CC(C)CN(C)C(=O)c1cn2c(C(=O)NC[C@@H]3CC[C@H]4C[C@@H]3C4(C)C)cccc2n1 [Compound 467, 5-N-{[(1S,2R,5S)-6,6-dimethylbicyclo[3.1.1]hept-2-yl]methyl}-2-N-isobutyl-2-N-methylimidazo[1,2-a]pyridine-2,5-dicarboxamide]
< 2 µM | CCCN(C)C(=O)CNC(=O)c1cn2c(C(=O)NC[C@@H]3CC[C@H]4C[C@@H]3C4(C)C)cccc2n1 [Compound 505, 5-N-{[(1S,2R,5S)-6,6-dimethylbicyclo[3.1.1]hept-2-yl]methyl}-2-N-{2-[methyl(propyl)amino]-2-oxoethyl}imidazo[1,2-a]pyridine-2,5-dicarboxamide]
< 2 µM | CC1CNCCN1C(=O)c1cn2c(C(=O)NCC34CC5CC(CC(C5)C3)C4)cccc2n1 (stereo not shown) [Compound 602, N-(adamantan-1-ylmethyl)-2-[(2-methylpiperazin-1-yl)carbonyl]imidazo[1,2-a]pyridine-5-carboxamide]

Same assay, conditions: 50% decrease in the fluorescence response of cells exposed to 80 μM of 2′(3′)-O-(4-benzoyl-benzoyl)adenosine 5′-triphosphate; Example 4A; read-out: IC50

IC50 | Compound
< 2 µM | CC(C)N(CCO)C(=O)c1cn2c(C(=O)NCC34CC5CC(CC(C5)C3)C4)cccc2n1 [Compound 697, 5-N-(adamantan-1-ylmethyl)-2-N-(2-hydroxyethyl)-2-N-isopropylimidazo[1,2-a]pyridine-2,5-dicarboxamide]
< 2 µM | CCN(CC)CCCNC(=O)c1cn2c(C(=O)NCC34CC5CC(CC(C5)C3)C4)cccc2n1 [Compound 658, 5-N-(adamantan-1-ylmethyl)-2-N-[3-(diethylamino)propyl] imidazo[1,2-a] pyridine-2,5-dicarboxamide]
< 2 µM | O=C(NCC12CC3CC(CC(C3)C1)C2)c1cccc2nc(C(=O)N3CCCC(C(=O)NCCCO)C3)cn12 (stereo not shown) [Compound 694, N-(adamantan-1-ylmethyl)-2-({3-[(3-hydroxypropyl)carbamoyl]piperidin-1-yl}carbonyl) imidazo[1,2-a]pyridine-5-carboxamide]
< 2 µM | CC1(C)C2CC[C@H](CNC(=O)c3cccc4nc(CC(=O)NCC(F)(F)F)cn34)C1C2 (stereo partly drawn) [Compound 793, N-{[(2S)-6,6-dimethylbicyclo [3.1.1]hept-2-yl]methyl}-2-{2-oxo-2-[(2,2,2-trifluoroethyl)amino]ethyl}imidazo [1,2-a]pyridine-5-carboxamide]

Same assay, conditions: 50% decrease in the fluorescence response of cells exposed to 80 μM of 2′(3′)-O-(4-benzoyl-benzoyl)adenosine 5′-triphosphate; determined as in Example 4A; read-out: IC50

IC50 | Compound
< 2 µM | O=C(NCC12CC3CC(CC(C3)C1)C2)c1cccc2nc(CNc3ccn(CCCO)n3)cn12 [Compound 1000, N-(adamantan-1-ylmethyl)-2-({[1-(3-hydroxypropyl)-1H-pyrazol-3-yl]amino}methyl) imidazo [1,2-a]pyridine-5-carboxamide]
< 2 µM | COc1cccc(CC(C(=O)O)c2cn3c(C(=O)NCC45CC6CC(CC(C6)C4)C5)cccc3n2)c1 (stereo not shown) [Compound 843, 2-{5-[(adamantan-1-ylmethyl)carbamoyl]imidazo[1,2-a]pyridin-2-yl}-3-(3-methoxyphenyl) propanoic acid]
< 2 µM | CC(C)CC(CNC(=O)c1cccc2nc(C(Cc3ccccc3)C(=O)O)cn12)c1ccc(Cl)cc1 (stereo not shown) [Compound 939, 2-(5-{[2-(4-chlorophenyl)-4-methylpentyl]carbamoyl}imidazo[1,2-a]pyridin-2-yl)-3-phenylpropanoic acid]
< 2 µM | CCCC(CNC(=O)c1cccc2nc(CC(Cc3ccccc3)C(=O)O)cn12)c1ccc(Cl)cc1 (stereo not shown) [Compound 1006, 2-benzyl-3-(5-{[2-(4-chlorophenyl)pentyl]carbamoyl}imidazo[1,2-a]pyridin-2-yl) propanoic acid]
< 2 µM | CC(C)(C)CCNC(=O)Cc1cn2c(C(=O)NCC3(c4cccnc4)CCCCC3)cccc2n1 [Compound 884, 2-{2-[(3,3-dimethylbutyl)amino]-2-oxoethyl}-N-[(1-pyridin-3-ylcyclohexyl)methyl] imidazo[1,2-a] pyridine-5-carboxamide]
< 2 µM | O=C(NCC12CC3CC(CC(C3)C1)C2)c1cccc2nc(C(Cc3ccccc3Cl)C(=O)O)cn12 (stereo not shown) [Compound 844, 2-{5-[(adamantan-1-ylmethyl)carbamoyl]imidazo[1,2-a]pyridin-2-yl}-3-(2-chlorophenyl) propanoic acid]

Same assay, conditions: P2X7 calcium mobilization, Example 4A; 50% decrease in the fluorescence response of cells exposed to 80 μM of (2′(3′)-O-(4-benzoyl-benzoyl)adenosine 5′-triphosephate); read-out: IC50

IC50 | Compound
< 2 µM | O=C(NCC12CC3CC(CC(C3)C1)C2)c1ccc2nc(CCl)cn2c1 [Compound 1062, N-(adamantan-1-ylmethyl)-2-(chloromethyl) imidazo [1,2-a]pyridine-6-carboxamide]
< 2 µM | CC(=O)OC(C)OC(=O)N[C@@H]1CCCN(C(=O)Cc2cn3c(C(=O)NCC45CC6CC(CC(C6)C4)C5)cccc3n2)C1 (stereo partly drawn) [Compound 1060, 1-({[(3R)-1-({5-[(adamantan-1-ylmethyl)carbamoyl]imidazo[1,2-a]pyridin-2-yl}acetyl)piperidin-3-yl]carbamoyl}oxy)ethyl acetate]
< 2 µM | CCOC(=O)c1cn2cc(C(=O)NCC34CC5CC(CC(C5)C3)C4)ccc2n1 [Compound 1061, ethyl 6-[(adamantan-1-ylmethyl)carbamoyl] imidazo [1,2-a]pyridine-2-carboxylate]
< 2 µM | Cc1ccc(C2(CNC(=O)c3cccc4nc(CN5CCCC5)cn34)CCCCC2)cc1 [Compound 1049, N-{[1-(4-methylphenyl)cyclohexyl]methyl}-2-(pyrrolidin-1-ylmethyl) imidazo[1,2-a]pyridine-5-carboxamide]

Same assay, conditions: SH-SY5Y cells; 50% decrease in fluorescence response to 80 μM BzATP; read-out: IC50

IC50 | Compound
< 2 µM | CCOC(=O)Cc1cn2c(C(=O)NCC3CCCCC3)cccc2n1 [Compound 141, ethyl {5-[(cyclohexylmethyl)car-bamoyl]imidazo[1,2-a]pyridin-2-yl}acetate]
< 2 µM | COCCN1CCN(C(=O)c2cn3c(C(=O)NCC45CC6CC(CC(C6)C4)C5)cccc3n2)CC1 [Compound 94, N-(adamantan-1-ylmethyl)-2-{[4-(2-methoxyethyl)piperazin-1-yl]carbonyl}imidazo[1,2-a]pyridine-5-carboxamide]
< 2 µM | CC(O)CNC(=O)c1cn2c(C(=O)NCC34CC5CC(CC(C5)C3)C4)cccc2n1 (stereo not shown) [Compound 86, 5-N-(adamantan-1-ylmethyl)--(2-hydroxy-propyl)imidazo[1,2-a]pyridine-2,5-dicarboxamide]

Same assay, conditions: fluorescence response of cells exposed to 80 μM 2′(3′)-O-(4-benzoyl-benzoyl)adenosine 5′-triphosphate; Example 4A; read-out: IC50

IC50 | Compound
< 2 µM | CCN(CCCO)C(=O)c1cn2c(NC(=O)CC34CC5CC(CC(C5)C3)C4)cccc2n1 [Compound 417, 5-[(adamantan-1-ylacetyl)amino]-N-ethyl-N-(3-hydroxypropyl) imidazo [1,2-a]pyridine-2-carboxamide]
< 2 µM | O=C(CC12CC3CC(CC(C3)C1)C2)Nc1cccc2nc(C(=O)N3CCCCC3CO)cn12 (stereo not shown) [Compound 415, 2-adamantan-1-yl-N-(2-{[2-(hydroxymethyl)piperidin-1-yl]carbonyl}imidazo[1,2-a]pyridin-5-yl)acetamide]
< 2 µM | O=C(O)c1cccc(-c2cn3c(C(=O)NCC45CC6CC(CC(C6)C4)C5)cccc3n2)c1 [Compound 345, 3-{5-[(adamantan-1-ylmethyl)carbamoyl]imidazo[1,2-a]pyridin-2-yl} benzoic acid]
< 2 µM | CC1(C)[C@H]2CC[C@@H](CNC(=O)c3cccc4nc(C(=O)N5CC[C@H](N)C5)cn34)[C@@H]1C2 [Compound 330, 2-{[(3S)-3-aminopyrrolidin-1-yl]carbonyl}-N-{[(1S,2R,5S)-6.6-dimethylbicyclo{3.1.1]hept-2-yl]methyl}imidazo[1,2-a]pyridine-5-carboxamide]
< 2 µM | Cc1nn(Cc2cn3c(C(=O)NCC45CC6CC(CC(C6)C4)C5)cccc3n2)cc1C(=O)O [Compound 275, 1-({5-[(adamantan-1-ylmethyl)carbamoyl]imidazo [1,2-a]pyridin-2-yl}methyl)-3-methyl-1H-pyrazole-4-carboxylic acid]
